Laboratory results: US20240307547A1, “NOVEL COMPOUNDS WHICH BIND TO CEREBLON, AND METHODS OF USE THEREOF” (Captor Therapeutics S.A., priority 2020, published 2024)

Columns and labels:
[1] = target: CRBN-DDB1 protein complex (Homo sapiens, UniProt Q96SW2); experiment: Fluorescence polarization (FP) assay, displacement of Cy5-labelled thalidomide; conditions: read-out: CRBN binding Ki; further: 25 nM CRBN-DDB1
Method: The test solution was added to a 384-well assay plate.
The plate was spun-down (1 min, 1000 rpm, 22° C.) and then shaken using a VibroTurbulator for 10 min at room temperature (20-25° C.), with the frequency set to level 3. The assay plate with protein and the tracer was incubated for 60 min at room temperature (20-25° C.) prior to read-out with a plate reader.
The FP experiment was carried out with various concentrations of the test compounds in order to measure Ki values.

H929 (myeloma) = experiment: Viability, CTG (CellTiter-Glo) assay; format: cell-based; conditions: Homo sapiens, NCI-H929, H929, 72 hours, 100% = DMSO, read-out: Average of % viability of quadruplicate
Method: Three thousand cells in 50 μL of culture medium were plated in 384-well plate, and incubated with 50, 13, and 2 μM of each compound for 72 hours. ATP content in the remaining cells after the treatment was quantitated with the CellTiter-Glo Luminescent Viability Assay Kit (Promega). The activity of the compound at each concentration was shown as percentage viability; 100% viability was the ATP content in the cells incubated with DMSO, the carrier of the compounds.

IKZF3 = IKZF3 degradation assay, H929 cell line (western blot densitometry); format: cell-based; conditions: H929 cells, after 24 h
Method: (§1) H929 cells were maintained in RPMI-1640 medium, supplemented with penicillin/streptomycin and 10% Fetal Bovine Serum (FBS) and 0.05 mM 2-Mercaptoethanol. Cells were seeded on 6- or 12-well plates, and the compounds to be tested were added at the desired concentration range. Final DMSO concentration was 0.25%. After 24 h incubation (37° C., 5% CO2), cells were harvested, washed and cell lysates were prepared using RIPA lysis buffer. The amount of protein was determined via BCA assay, and the appropriate quantity was then loaded on the precast gel for the protein separation. After primary and secondary Ab staining, the membranes were washed and signals developed. The densitometry analysis was implemented to obtain the numeric values used later in the protein level evaluation process.
Densitometry values are normalized to the loading control (β-ACTIN) and presented as % of DMSO control in Tables 4A and 4B, below, using the following labels: • ≤25% for 0-25% of IKZF3 protein reduction, • >25% for 26-74% of IKZF3 protein reduction, • ≥75% for 75-100% of IKZF3 protein reduction.

IKZF1 = IKZF1 degradation assay, H929 cell line (western blot densitometry); format: cell-based; conditions: H929 cells, after 24 h
Method: as §1, with “penicillin/streptomycin,” for “penicillin/streptomycin and”
Densitometry values are normalized to the loading control (β-ACTIN) and presented as % of DMSO control in Table 3, below, using the following labels: • ≤25% for 0-25% of IKZF1 protein reduction, • >25% for 26-74% of IKZF1 protein reduction, • ≥75% for 75-100% of IKZF1 protein reduction.

SALL4 = SALL4 degradation assay, Kelly cell line (western blot densitometry); format: cell-based; conditions: Kelly cells, after 24 h
Method: as §1, with “Kelly” for “H929”, “(FBS).” for “(FBS) and 0.05 mM 2-Mercaptoethanol.”, “6-well” for “6- or 12-well”, “were” for “were harvested,”, “antibody” for “Ab”
Densitometry values are normalized to the loading control (β-ACTIN) and presented as % of DMSO control in Table 2, below, using the following labels: • ≤25% for 0-25% of SALL4 protein reduction, • >25% for 26-74% of SALL4 protein reduction, • ≥75% for 75-100% of SALL4 protein reduction.

Chain of CRBN-DDB1 protein complex (Q96SW2 whole entry): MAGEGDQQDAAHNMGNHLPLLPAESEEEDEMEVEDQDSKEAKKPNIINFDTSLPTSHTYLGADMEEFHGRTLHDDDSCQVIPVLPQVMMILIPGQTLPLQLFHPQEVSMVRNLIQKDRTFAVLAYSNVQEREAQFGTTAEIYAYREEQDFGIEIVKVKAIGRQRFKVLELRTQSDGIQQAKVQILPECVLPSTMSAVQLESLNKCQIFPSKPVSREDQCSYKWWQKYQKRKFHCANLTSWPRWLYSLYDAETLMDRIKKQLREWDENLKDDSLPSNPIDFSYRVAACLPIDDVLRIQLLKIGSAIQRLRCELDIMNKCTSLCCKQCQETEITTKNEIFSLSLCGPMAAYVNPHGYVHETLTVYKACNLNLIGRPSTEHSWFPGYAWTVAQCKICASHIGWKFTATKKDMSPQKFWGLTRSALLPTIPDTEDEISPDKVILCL
Chain of CRBN-DDB1 protein complex (Q16531 whole entry partner): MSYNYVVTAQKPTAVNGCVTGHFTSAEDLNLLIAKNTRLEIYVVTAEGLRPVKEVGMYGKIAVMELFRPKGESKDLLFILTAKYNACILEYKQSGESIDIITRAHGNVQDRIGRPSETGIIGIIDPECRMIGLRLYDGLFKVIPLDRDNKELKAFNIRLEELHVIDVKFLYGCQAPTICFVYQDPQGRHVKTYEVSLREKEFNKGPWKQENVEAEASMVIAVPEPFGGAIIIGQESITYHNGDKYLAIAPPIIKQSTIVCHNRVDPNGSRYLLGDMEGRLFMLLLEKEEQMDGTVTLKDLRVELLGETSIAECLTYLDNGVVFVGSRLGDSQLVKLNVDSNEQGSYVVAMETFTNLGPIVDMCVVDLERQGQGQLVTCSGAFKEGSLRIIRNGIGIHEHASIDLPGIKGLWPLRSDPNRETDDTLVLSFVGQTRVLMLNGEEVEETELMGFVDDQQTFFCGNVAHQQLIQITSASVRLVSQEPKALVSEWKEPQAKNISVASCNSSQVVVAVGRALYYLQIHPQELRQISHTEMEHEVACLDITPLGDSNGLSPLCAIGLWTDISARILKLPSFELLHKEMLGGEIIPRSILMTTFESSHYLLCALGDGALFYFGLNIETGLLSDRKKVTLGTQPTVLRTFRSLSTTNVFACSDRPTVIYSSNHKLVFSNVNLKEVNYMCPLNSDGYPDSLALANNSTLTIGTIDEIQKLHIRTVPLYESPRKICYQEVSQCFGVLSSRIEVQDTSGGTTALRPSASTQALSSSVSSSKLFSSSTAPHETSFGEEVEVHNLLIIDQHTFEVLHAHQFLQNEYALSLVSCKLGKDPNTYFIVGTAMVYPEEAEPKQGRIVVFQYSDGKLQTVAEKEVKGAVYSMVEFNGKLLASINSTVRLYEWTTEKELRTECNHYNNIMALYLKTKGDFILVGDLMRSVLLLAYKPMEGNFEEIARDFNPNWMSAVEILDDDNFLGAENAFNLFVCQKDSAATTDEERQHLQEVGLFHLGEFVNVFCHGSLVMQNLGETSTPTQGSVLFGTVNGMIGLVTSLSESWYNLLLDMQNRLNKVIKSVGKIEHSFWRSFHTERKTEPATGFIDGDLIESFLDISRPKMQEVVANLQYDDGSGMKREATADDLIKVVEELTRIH

Structure (SMILES)	Ki [1] [nM]	viability at 2 µM (H929 (myeloma); at 2 μM) [%]	viability at 13 µM (H929 (myeloma); at 13 μM) [%]	viability at 50 µM (H929 (myeloma); at 50 μM) [%]	% of IKZF3 (bottom band) protein reduction (IKZF3; at 1 μM)	% of IKZF3 (upper band) protein reduction (IKZF3; at 1 μM)	% of IKZF3 (bottom band) protein reduction (IKZF3; at 10 μM)	% of IKZF3 (upper band) protein reduction (IKZF3; at 10 μM)	% of IKZF3 (bottom band) protein reduction (IKZF3; at 20 μM)	% of IKZF3 (upper band) protein reduction (IKZF3; at 20 μM)	% of IKZF1 protein reduction (IKZF1; at 1 μM)	% of IKZF1 protein reduction (IKZF1; at 10 μM)	% of IKZF1 protein reduction (IKZF1; at 20 μM)	% of SALL4 protein reduction (SALL4; at 1 μM)	% of SALL4 protein reduction (SALL4; at 10 μM)	% of SALL4 protein reduction (SALL4; at 20 μM)
Cc1nc2cccc(N)c2cc1C1CCC(=O)NC1=O (stereo not shown) [Compound 1, 3-(5-amino-2-methylquinolin-3-yl)piperidine-2,6-dione]	1000 to 5000	61.2	47.5	32.9	>25% (>25% for 26-74% of IKZF3 protein reduction)	>25% (>25% for 26-74% of IKZF3 protein reduction)	≥75% (≥75% for 75-100% of IKZF3 protein reduction)	≥75% (≥75% for 75-100% of IKZF3 protein reduction)	≥75% (≥75% for 75-100% of IKZF3 protein reduction)	≥75% (≥75% for 75-100% of IKZF3 protein reduction)	>25% (>25% for 26-74% of IKZF1 protein reduction)	≥75% (≥75% for 75-100% of IKZF1 protein reduction)	≥75% (≥75% for 75-100% of IKZF1 protein reduction)	≤25% (≤25% for 0-25% of SALL4 protein reduction)	>25% (>25% for 26-74% of SALL4 protein reduction)	>25% (>25% for 26-74% of SALL4 protein reduction)
O=C1CCC(N2C(=O)c3ccccc3C2=O)C(=O)N1 (stereo not shown) [Thalidomide, reference compound]	–	–	–	–	≤25% (≤25% for 0-25% of IKZF3 protein reduction)	≤25% (≤25% for 0-25% of IKZF3 protein reduction)	≤25% (≤25% for 0-25% of IKZF3 protein reduction)	≤25% (≤25% for 0-25% of IKZF3 protein reduction)	>25% (>25% for 26-74% of IKZF3 protein reduction)	>25% (>25% for 26-74% of IKZF3 protein reduction)	≤25% (≤25% for 0-25% of IKZF1 protein reduction)	≤25% (≤25% for 0-25% of IKZF1 protein reduction)	>25% (>25% for 26-74% of IKZF1 protein reduction)	>25% (>25% for 26-74% of SALL4 protein reduction)	>25% (>25% for 26-74% of SALL4 protein reduction)	≥75% (≥75% for 75-100% of SALL4 protein reduction)
